{
  "source": "patent US9006194B2",
  "about": "“Compositions and methods for diminishing viral infection and inflammation associated with viral infection” (Drexel University, priority 2008, dated 2015)",
  "tested_on": "CD4+ and CD8+ T cells",
  "assay": "Apoptosis assay of primary human CD4+ and CD8+ T lymphocytes exposed to Type 1 interferon (CD95/Fas-induced, Annexin V)",
  "settings": "5 ng/mL for 72 hours, resting or anti-CD3 activated T cells, n=5 healthy donors",
  "method": "T cells were activated with anti-CD3 antibody. n=5 healthy donors for each group.\nPrimary human PBMC were isolated were isolated by density centrifugation using Ficoll from heparinized venous blood of HIV-1-seronegative adult donors and seeded into 24-well plates at a concentration of 1×10^6 cells/mL/well. Freshly isolated PBMC were treated with 5 ng/mL recombinant IFN-α (PBL Interferon Source; Piscataway, N.J.) in the presence or absence of monoclonal anti-CD3 antibody (OKT3). Anti-CD3 was immobilized by coating plates with 0.1 μg/mL in PBS for 2 hours. Following a 3 day incubation period, PBMC were harvested and transferred to 24-well plates that were uncoated or coated with 5 μg/mL monoclonal anti-CD95 antibody (IgM, CH11; Immunotech, Brea, Calif.) for 14 hour at 37° C. in 5% CO2. Cells were subsequently harvested, counted and stained for flow cytometry analysis. The following combinations of mAb were used to identify CD4+ and CD8+ T cell subpopulations: anti-CD3-PE/anti-CD4-APC/anti-CD8-PerCP; and for the apoptosis studies: Annexin V-Cy5.5 (eBioscience, San Diego, Calif.). One million cells were stained as previously described (Mueller Y M et al., 2001, Immunity. 15:871-882) with the combination of antibodies in HBSS (Cellgro, Herndon, Va.), 3% FBS, 0.02% NaN3 for 15 min on ice, washed twice with HBSS, 3% FBS, 0.02% NaN3 and fixed with 1% paraformaldehyde. […]",
  "data": [
    {"substance": "IFN-α", "values": [
      {"measurement": "CD95/Fas-induced apoptosis of T cells (in words)", "value": "increase"}
    ]}
  ]
}
